Source: patent publication US4443436A, “C-20-Modified macrolide derivatives of the macrolide antibiotics tylosin, desmycosin, macrocin, and lactenocin” (Eli Lilly and Company, priority 1982, dated 1984)
In brackets after ≈: the same amount, converted by molar mass. Where two headings read alike, the source gives them in different places.

Assays:
[1] = test system: Staphylococcus epidermidis EPI1; assay: MIC, standard agar-dilution assay, Staphylococcus epidermidis EPI1; format: cell-based
[2] = test system: Pasteurella multocida 17E; assay: MIC, broth-dilution microtiter test, Pasteurella multocida 17E; format: cell-based; details: Pasteurella multocida 17E, bovine isolate, broth-dilution microtiter
From the text: (§1) The MIC's in Table X were obtained using conventional broth-dilution microtiter tests.

Staphylococcus aureus = assay: MIC, broth-dilution microtiter test, Staphylococcus aureus; format: cell-based
From the text: as §1

[3] = test system: Staphylococcus aureus S13E; assay: MIC, standard agar-dilution assay, Staphylococcus aureus S13E; format: cell-based
[4] = test system: Staphylococcus aureus V41; assay: MIC, standard agar-dilution assay, Staphylococcus aureus V41; format: cell-based
Mycoplasma hyopneumoniae = assay: MIC, broth-dilution microtiter test, Mycoplasma hyopneumoniae; format: cell-based
From the text: as §1

[5] = test system: Haemophilus influenzae Holt; assay: MIC, standard agar-dilution assay, Haemophilus influenzae Holt; format: cell-based
[6] = test system: Haemophilus influenzae R252; assay: MIC, standard agar-dilution assay, Haemophilus influenzae R252; format: cell-based
[7] = test system: Streptococcus pneumoniae Park I; assay: microbe, parasite or virus in culture; format: cell-based
[8] = test system: Pasteurella hemolytica 22C; assay: MIC, broth-dilution microtiter test, Pasteurella hemolytica 22C; format: cell-based
From the text: as §1

[9] = test system: Staphylococcus aureus X400; assay: MIC, standard agar-dilution assay, Staphylococcus aureus X400; format: cell-based
Mycoplasma gallisepticum = assay: MIC, broth-dilution microtiter test, Mycoplasma gallisepticum; format: cell-based
From the text: as §1

Streptococcus bovis 80 = assay: MIC, broth-dilution microtiter test, Streptococcus bovis 80; format: cell-based; details: Streptococcus bovis 80, broth-dilution microtiter
From the text: as §1

[10] = test system: Streptococcus pyogenes C203; assay: In vivo protection of mice experimentally infected with S. pyogenes C203; details: mice, doses given 1 and 4 hours post-infection; for ED50: Streptococcus pyogenes
Method: The C-20 modified derivatives of this invention have shown in vivo antimicrobial activity against experimentally-induced infections in laboratory animals. When two doses of test compound were administered to mice experimentally infected with S. pyogenes C203, the activity observed was measured as an ED50 value [effective dose in mg/kg to protect 50% of the test animals: see Warren Wick, et al., J. Bacteriol. 81, 233-235 (1961)].

[11] = test system: Staphylococcus aureus X1.1; assay: MIC, standard agar-dilution assay, Staphylococcus aureus X1.1; format: cell-based
[12] = test system: Streptococcus Group D X66; assay: MIC, standard agar-dilution assay, Streptococcus Group D X66; format: cell-based; details: Streptococcus Group D X66, agar dilution
Mycoplasma hyorhinis = assay: MIC, broth-dilution microtiter test, Mycoplasma hyorhinis; format: cell-based
From the text: as §1

[13] = test system: Pasteurella multocida 60A; assay: MIC, broth-dilution microtiter test, Pasteurella multocida 60A; format: cell-based
From the text: as §1

Streptococcus Group 9960 = assay: MIC, standard agar-dilution assay, Streptococcus Group 9960; format: cell-based; details: Streptococcus Group 9960, agar dilution
[14] = test system: Streptococcus pyogenes C203; assay: MIC, standard agar-dilution assay, Streptococcus pyogenes C203; format: cell-based; details: Streptococcus pyogenes C203; agar dilution
[15] = test system: Staphylococcus epidermidis EPI2; assay: MIC, standard agar-dilution assay, Staphylococcus epidermidis EPI2; format: cell-based
Mycoplasma synoviae = assay: MIC, broth-dilution microtiter test, Mycoplasma synoviae; format: cell-based; details: Mycoplasmopsis synoviae
From the text: as §1

[16] = Staphylococcus epidermidis EPI1, agar dilution
[17] = Staphylococcus aureus S13E, agar dilution
[18] = Staphylococcus aureus V41, penicillin-resistant strain, agar dilution
[19] = Mycoplasma hyopneumoniae, broth-dilution microtiter
[20] = Haemophilus influenzae Holt, ampicillin-sensitive strain, agar dilution
[21] = Haemophilus influenzae R252, ampicillin-resistant strain, agar dilution
[22] = Streptococcus pneumoniae Park I, agar dilution
[23] = Pasteurella hemolytica 22C, broth-dilution microtiter
[24] = Staphylococcus aureus X400, methicillin-resistant strain, agar dilution
[25] = Mycoplasma gallisepticum, broth-dilution microtiter
[26] = Staphylococcus aureus X1.1, agar dilution
[27] = Mycoplasma hyorhinis, broth-dilution microtiter
[28] = Pasteurella multocida 60A, avian isolate, broth-dilution microtiter
[29] = Staphylococcus epidermidis EPI2, agar dilution

`CCC(=O)OC1C(OC2C(CCN3C(=O)c4ccccc4C3=O)CC(C)C(=O)C=CC(C)=CC(COC3OC(C)C(O)C(OC)C3OC)C(CC)OC(=O)CC(O)C2C)OC(C)C(O)C1N(C)C` (stereo not drawn) [Compound 65, 20-DH-DO-20-N-Phthalimido-2'-O-propionyldesmycosin] gave an MIC [1, 16] of 0.25 µg/mL (≈ 0.261 µM), an MIC [2] of 25 µg/mL (≈ 26.1 µM) and an MIC (Staphylococcus aureus; broth-dilution microtiter) of 1.56 µg/mL (≈ 1.63 µM). It also gave an MIC [3, 17] of 0.5 µg/mL (≈ 0.521 µM), an MIC [4, 18] of 0.5 µg/mL (≈ 0.521 µM) and an MIC (Mycoplasma hyopneumoniae; [19]) of 12.5 µg/mL (≈ 13 µM). The MIC [5, 20] was 64 µg/mL (≈ 66.7 µM), the MIC [6, 21] was 32 µg/mL (≈ 33.4 µM) and the MIC [7, 22] was 1 µg/mL (≈ 1.04 µM). It also gave an MIC [8, 23] of 25 µg/mL (≈ 26.1 µM), an MIC [9, 24] of 0.5 µg/mL (≈ 0.521 µM) and an MIC (Mycoplasma gallisepticum; [25]) of under 0.05 µg/mL. The MIC (Streptococcus bovis 80) was 6.25 µg/mL (≈ 6.52 µM), the “ED50, Oral” value ([10]; oral) was 20 mg/kg × 2 and the “ED50, Subcutaneous” value ([10]; subcutaneous) was 1.7 mg/kg × 2. For the same compound, the MIC [11, 26] was 0.5 µg/mL (≈ 0.521 µM), the MIC [12] was 8 µg/mL (≈ 8.34 µM) and the MIC (Mycoplasma hyorhinis; [27]) was “-- (Not active at 50 mcg/ml, the highest level tested)”. It also gave an MIC [13, 28] of 12.5 µg/mL (≈ 13 µM), an MIC (Streptococcus Group 9960) of 8 µg/mL (≈ 8.34 µM) and an MIC [14] of 0.5 µg/mL (≈ 0.521 µM).

With `CCC(=O)OC1C(C)OC(OC2C(CCN3C(=O)c4ccccc4C3=O)CC(C)C(=O)C=CC(C)=CC(COC3OC(C)C(O)C(OC)C3OC)C(CC)OC(=O)CC(O)C2C)C(OC(=O)CC)C1N(C)C` (stereo not drawn) [Compound 66, 20-DH-DO-20-N-Phthalimido-2',4'-di-O-propionyldesmycosin] the MIC [1, 16] was 0.5 µg/mL (≈ 0.493 µM), the MIC [2] was 25 µg/mL (≈ 24.6 µM) and the MIC (Staphylococcus aureus; broth-dilution microtiter) was 0.78 µg/mL (≈ 0.768 µM). It also gave an MIC [3, 17] of 0.5 µg/mL (≈ 0.493 µM), an MIC [4, 18] of 0.5 µg/mL (≈ 0.493 µM) and an MIC (Mycoplasma hyopneumoniae; [19]) of 25 µg/mL (≈ 24.6 µM). It also gave an MIC [5, 20] of 64 µg/mL (≈ 63 µM), an MIC [6, 21] of 64 µg/mL (≈ 63 µM) and an MIC [7, 22] of 0.5 µg/mL (≈ 0.493 µM). It also gave an MIC [8, 23] of 25 µg/mL (≈ 24.6 µM), an MIC [9, 24] of 1 µg/mL (≈ 0.985 µM) and an MIC (Mycoplasma gallisepticum; [25]) of 0.09 µg/mL (≈ 0.0887 µM). The MIC (Streptococcus bovis 80) was 6.25 µg/mL (≈ 6.16 µM), the MIC [15, 29] was 0.25 µg/mL (≈ 0.246 µM) and the “ED50, Oral” value ([10]; oral) was 31 mg/kg × 2. The “ED50, Subcutaneous” value ([10]; subcutaneous) was over 6.3 mg/kg × 2, the MIC [11, 26] was 0.5 µg/mL (≈ 0.493 µM) and the MIC [12] was 8 µg/mL (≈ 7.88 µM). The MIC (Mycoplasma hyorhinis; [27]) was 50 µg/mL (≈ 49.3 µM), the MIC [13, 28] was 25 µg/mL (≈ 24.6 µM) and the MIC (Streptococcus Group 9960) was 8 µg/mL (≈ 7.88 µM). The MIC [14] was 2 µg/mL (≈ 1.97 µM).

Compound `CCC(=O)OC1C(OC2C(CCCl)CC(C)C(=O)C=CC(C)=CC(COC3OC(C)C(O)C(OC)C3OC)C(CC)OC(=O)CC(O)C2C)OC(C)C(O)C1N(C)C` (stereo not drawn) [Compound 69, 20-DH-DO-20-Chloro-2'-O-propionyldesmycosin] has an MIC [1, 16] of 0.25 µg/mL (≈ 0.295 µM), an MIC [2] of 25 µg/mL (≈ 29.5 µM) and an MIC (Staphylococcus aureus; broth-dilution microtiter) of 0.78 µg/mL (≈ 0.919 µM). For the same compound, the MIC [3, 17] was 0.25 µg/mL (≈ 0.295 µM), the MIC [4, 18] was 0.25 µg/mL (≈ 0.295 µM) and the MIC (Mycoplasma hyopneumoniae; [19]) was 12.5 µg/mL (≈ 14.7 µM). The MIC [5, 20] was 16 µg/mL (≈ 18.9 µM), the MIC [6, 21] was 16 µg/mL (≈ 18.9 µM) and the MIC [7, 22] was 0.25 µg/mL (≈ 0.295 µM). For the same compound, the MIC [8, 23] was 25 µg/mL (≈ 29.5 µM), the MIC [9, 24] was 0.5 µg/mL (≈ 0.589 µM) and the MIC (Mycoplasma gallisepticum; [25]) was 0.39 µg/mL (≈ 0.46 µM). For the same compound, the MIC (Streptococcus bovis 80) was 6.25 µg/mL (≈ 7.37 µM), the MIC [15, 29] was 0.12 µg/mL (≈ 0.141 µM) and the “ED50, Oral” value ([10]; oral) was 27 mg/kg × 2. For the same compound, the “ED50, Subcutaneous” value ([10]; subcutaneous) was 3.3 mg/kg × 2, the MIC [11, 26] was 0.25 µg/mL (≈ 0.295 µM) and the MIC [12] was 8 µg/mL (≈ 9.43 µM). It also gave an MIC (Mycoplasma hyorhinis; [27]) of 50 µg/mL (≈ 58.9 µM), an MIC [13, 28] of 2.5 µg/mL (≈ 2.95 µM) and an MIC (Streptococcus Group 9960) of 8 µg/mL (≈ 9.43 µM). For the same compound, the MIC [14] was 2 µg/mL (≈ 2.36 µM).

Work on `CCC1OC(=O)CC(O)C(C)C(OC2OC(C)C(O)C(N(C)C)C2O)C(CC2OCCO2)CC(C)C(=O)C=CC(C)=CC1COC1OC(C)C(O)C(OC)C1OC` (stereo not drawn) [Compound 74] yielded an MIC ([1]; Staphylococcus epidermidis, EPI1) of 0.5 µg/mL (≈ 0.613 µM), an MIC ([2]; read-out: MIC) of 25 µg/mL (≈ 30.6 µM) and an MIC (Staphylococcus aureus) of 3.12 µg/mL (≈ 3.82 µM). For the same compound, the MIC ([3]; Staphylococcus aureus, S13E) was 0.5 µg/mL (≈ 0.613 µM), the MIC ([4]; Staphylococcus aureus, V41) was 1 µg/mL (≈ 1.23 µM) and the MIC (Mycoplasma hyopneumoniae; Mesomycoplasma hyopneumoniae) was 1.56 µg/mL (≈ 1.91 µM). For the same compound, the MIC ([5]; Haemophilus influenzae) was 32 µg/mL (≈ 39.2 µM), the MIC ([6]; Haemophilus influenzae, R252) was 32 µg/mL (≈ 39.2 µM) and the MIC ([7]; Streptococcus pneumoniae) was 0.25 µg/mL (≈ 0.306 µM). For the same compound, the MIC ([8]; Pasteurella, 22C) was 50 µg/mL (≈ 61.3 µM), the MIC ([9]; Staphylococcus aureus, X400) was 2 µg/mL (≈ 2.45 µM) and the MIC (Mycoplasma gallisepticum; Mycoplasmoides gallisepticum) was 3.12 µg/mL (≈ 3.82 µM). The MIC (Mycoplasma synoviae) was 6.25 µg/mL (≈ 7.66 µM), the MIC (Streptococcus bovis 80; Streptococcus equinus, read-out: MIC) was 6.25 µg/mL (≈ 7.66 µM) and the MIC ([15]; Staphylococcus epidermidis, EPI2) was 0.25 µg/mL (≈ 0.306 µM). For the same compound, the ED50 ([10]; C203, sc, subcutaneous, read-out: ED50, Subcutaneous) was 3.3 mg/kg, the ED50 ([10]; C203, oral, read-out: ED50, Oral) was over 25 mg/kg and the MIC ([11]; Staphylococcus aureus, X1.1) was 0.5 µg/mL (≈ 0.613 µM). It also gave an MIC ([12]; read-out: MIC) of 8 µg/mL (≈ 9.8 µM), an MIC (Mycoplasma hyorhinis; Mycoplasma) of 50 µg/mL (≈ 61.3 µM) and an MIC ([13]; Pasteurella multocida, 60A) of 50 µg/mL (≈ 61.3 µM). For the same compound, the MIC (Streptococcus Group 9960; GROUP9960, read-out: MIC) was 8 µg/mL (≈ 9.8 µM).
